Data from paper PMC9317966, “Structure-function analysis of the AMPK activator SC4 and identification of a potent pan AMPK activator” (Biochemical Journal, 2022).

Assays:
Type in all cases: cell-based
[1] = test system: mouse primary hepatocytes; assay: Immunoblot of AMPK signalling in mouse primary hepatocytes; settings: 2.5 µM, 60 min
Procedure: (§1) To evaluate the efficacy of MSG011 in cellulo, we incubated mouse primary hepatocytes with 2.5 µM MSG011 for 60 min and tracked changes in phosphorylation of AMPK α-Thr172 (marker of activation) and the AMPK substrate acetyl-CoA carboxylase (ACC) Ser79 (AMPK signalling marker).
(§2) HEK293T/17, HEK293T, COS7, HeLa and PC3 cells (ATCC) were maintained in Dulbecco's Modified Eagle's medium (DMEM; Sigma–Aldrich) supplemented with 10% fetal bovine serum (FBS; Assay Matrix) at 37°C and 5% CO2. Primary hepatocytes from wild type mice were prepared using the collagenase perfusion method and cultured as described previously. Cultures were incubated with fresh DMEM (no FBS) for 2 h prior to 1 h treatment with MSG011 (dissolved in DMSO) or phenformin (dissolved in H2O). Adherent HEK293T/17 cells at ∼50% confluency were triply transfected with AMPK α1 (pcDNA3.1 vector), β1 (COOH-terminal MYC fusion, pcDNA3.1 vector) and WT γ1 or γ1-R299G mutant (NH2-terminal HA fusion, pMT2 vector) in the presence of FuGENE HD transfection reagent (Promega) as per the manufacturers protocol. […]
(§3) All samples were separated on 12% SDS–PAGE gels and transferred to an Immobilon-FL PVDF membrane (Merck Millipore). […] Immunoblots were visualised on the Odyssey Infrared Imaging System (LI-COR Biosciences) and immunoreactive bands analysed and quantified using Image Studio Software (LI-COR Biosciences).

HEK293T cells = assay: Immunoblot of AMPK signalling in HEK293T cells; settings: 2.5 µM, 1 h
Procedure: as §1, §2, §3

HeLa cells = assay: Immunoblot of AMPK signalling in HeLa cells; settings: 2.5 µM, 1 h
Procedure: as §1, §2, §3

PC3 cells = assay: Immunoblot of AMPK signalling in PC3 cells; settings: PC3, 2.5 µM, 1 h
Procedure: as §1, §2, §3

CC(=O)NC1CC=C(c2ccc(-c3nc4nc(Oc5ccc(C)c(C(=O)O)c5)[nH]c4cc3Cl)cc2)CC1 (stereo not drawn) [MSG011, 5-((5-(4′-Acetamido-2′,3′,4′,5′-tetrahydro-[1,1′-biphenyl]-4-yl)-6-chloro-1H-imidazo[4,5-b]pyridin-2-yl)oxy)-2-methylbenzoic acid]
phosphorylation of AMPK α-Thr172 [1]: independently of significant net phosphorylation of AMPK α-Thr172 | AMPK signalling (phosphorylation of ACC-Ser79 and raptor-Ser792) (HEK293T cells): at levels comparable to extreme energy stress | α-Thr172 phosphorylation (HEK293T cells): independent of changes to α-Thr172 phosphorylation | AMPK signalling (phosphorylation of ACC-Ser79 and raptor-Ser792) (HeLa cells): significantly activated AMPK | AMPK signalling (phosphorylation of ACC-Ser79 and raptor-Ser792) (PC3 cells): significantly activated AMPK | α-Thr172 phosphorylation (PC3 cells): independent of changes to α-Thr172 phosphorylation
